Assay results reported in patent publication US11576922B2, “CD73 inhibitors” (ORIC Pharmaceuticals, Inc., priority 2017, dated 2023).

These compounds were tested against T1, CD73 (Homo sapiens, UniProt P21589) (assay: Example A1: Biochemical Assay (CD73 inhibition, Malachite Green detection of AMP hydrolysis)). Details: Biochemical IC50, CD73 0.3208 nM, AMP 15 μM, Tris-HCl pH 7.4, Malachite Green, absorbance 620 nm.
T1 sequence (P21589 27-549): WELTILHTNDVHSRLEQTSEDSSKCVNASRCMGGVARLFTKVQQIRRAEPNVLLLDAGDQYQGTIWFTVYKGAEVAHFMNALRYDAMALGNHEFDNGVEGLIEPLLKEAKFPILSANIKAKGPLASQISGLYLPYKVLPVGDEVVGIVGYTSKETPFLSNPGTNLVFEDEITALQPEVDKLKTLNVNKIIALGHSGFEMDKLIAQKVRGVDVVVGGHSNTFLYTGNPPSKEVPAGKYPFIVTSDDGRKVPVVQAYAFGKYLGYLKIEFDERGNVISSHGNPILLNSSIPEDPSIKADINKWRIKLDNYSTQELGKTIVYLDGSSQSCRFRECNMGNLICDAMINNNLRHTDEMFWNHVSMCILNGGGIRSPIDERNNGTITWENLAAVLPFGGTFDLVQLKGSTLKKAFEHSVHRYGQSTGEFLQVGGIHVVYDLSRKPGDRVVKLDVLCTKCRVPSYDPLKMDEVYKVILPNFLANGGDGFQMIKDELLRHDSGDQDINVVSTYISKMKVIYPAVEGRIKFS
Procedure: Example A1: Biochemical Assay
Assay Reaction Conditions
• Assay Volume: 70 μl • Reaction Volume: 50 μl • CD73: 0.3208 nM • AMP: 15 μM • Assay Buffer: 2 5 mM Tris-HCL, pH 7.4, 0.01% Brij-35, 0.01% BSA, 5 mM MgCl2 Assay Procedure:
Made dose titration of testing compounds in assay buffer, 10 points ½ log titrations in duplicates starting at 100 μM.
Added 25 μl of CD73 to each well for a final concentration of […].
Incubated at RT for 15 min.
Added 25 μl of AMP to each well for a final concentration of 15 μM.
Incubated at RT for 10 min.
Added 10 μl of Malachite Green Reagent A, incubate at RT for 10 min.
Added 10 μl of Malachite Green Reagent B, incubate at RT for 45 min.
Read the Absorbance on Envision plate reader using excitation filter: Cy5 […].
The ability of the compounds disclosed herein to inhibit CD73 activity was quantified and the respective IC50 values were determined. Table 1 provides the biochemical IC50 values of compounds disclosed herein.

SMILES | IC50 [nM]
O=P(O)(O)C[P@@](=O)(OC[C@H]1O[C@@H](n2nnc3c(NCc4ccccc4Cl)nc(Cl)nc32)[C@H](O)[C@@H]1O)Oc1ccccc1 [Example 33, (((R)-(((2R,3S,4R,5R)-5-(5-chloro-7-((2-chlorobenzyl)amino)-3H-[1,2,3]triazolo[4,5-d]pyrimidin-3-yl)-3,4-dihydroxytetrahydrofuran-2-yl)methoxy)(phenoxy)phosphoryl)methyl) phosphonic acid] | 100 to 1000

Same assay, conditions: CD73 0.3208 nM, AMP 15 μM, Tris-HCl pH 7.4, Malachite Green, absorbance 620 nm; read-out: Biochemical IC50

SMILES | IC50 [nM]
O=P(O)(O)CP(=O)(OCC1CC1)OC[C@H]1O[C@@H](n2nnc3c(NCc4ccccc4Cl)nc(Cl)nc32)[C@H](O)[C@@H]1O (stereo partly drawn) [Example 30, (((((2R,3S,4R,5R)-5-(5-chloro-7-((2-chlorobenzyl)amino)-3H-[1,2,3]triazolo[4,5-d]pyrimidin-3-yl)-3,4-dihydroxytetrahydrofuran-2-yl)methoxy) (cyclopropylmethoxy)phosphoryl)methyl) phosphonic acid] | < 100
CN(Cc1ccccc1Cl)c1nc(Cl)nc2c1nnn2[C@@H]1C[C@H](COP(=O)(O)CP(=O)(O)O)[C@@H](O)[C@H]1O [Example 21, (((((1R,2R,3S,4R)-4-(5-chloro-7-((2-chlorobenzyl)(methyl)amino)-3H-[1,2,3]triazolo[4,5-d]pyrimidin-3-yl)-2,3-dihydroxycyclopentyl)methoxy)(hydroxy)phosphoryl)methyl)phosphonic acid] | < 100
C[C@@H](c1ccccc1Cl)N(C)c1nc(Cl)nc2c1nnn2[C@@H]1O[C@H](COP(=O)(O)CP(=O)(O)O)[C@@H](O)[C@H]1O [Example 12, (((((2R,3S,4R,5R)-5-(5-chloro-7-(((S)-1-(2-chlorophenyl)ethyl)(methyl)amino)-3H-[1,2,3]triazolo[4,5-d]pyrimidin-3-yl)-3,4-dihydroxytetrahydrofuran-2-yl)methoxy)(hydroxy)phosphoryl)methyl) phosphonic acid] | < 100
CO[P@](=O)(CP(=O)(O)O)OC[C@H]1O[C@@H](n2nnc3c(NCc4ccccc4Cl)nc(Cl)nc32)[C@H](O)[C@@H]1O [Example 27, (((R)-(((2R,3S,4R,5R)-5-(5-Chloro-7-((2-chlorobenzyl)amino)-3H-[1,2,3]triazolo[4,5-d]pyrimidin-3-yl)-3,4-dihydroxytetrahydrofuran-2-yl)methoxy)(methoxy)phosphoryl)methyl)phosphonic acid] | 100 to 1000
COP(=O)(CP(=O)(O)O)OC[C@H]1O[C@@H](n2nnc3c(N(C)[C@H]4CCc5ccccc54)nc(Cl)nc32)[C@H](O)[C@@H]1O (stereo partly drawn) [Example 24, (((((2R,3S,4R,5R)-5-(5-Chloro-7-(((S)-2,3-dihydro-1H-inden-1-yl)(methyl)amino)-3H-[1,2,3]triazolo[4,5-d]pyrimidin-3-yl)-3,4-dihydroxytetrahydrofuran-2-yl)methoxy)(methoxy)phosphoryl)methyl)phosphonic acid] | < 100
O=P(O)(O)CP(=O)(O)OC[C@H]1O[C@@H](n2nnc3c(NCc4ccccc4)nc(Cl)nc32)[C@H](O)[C@@H]1O [Example 1, (((((2R,3S,4R,5R)-5-(7-(Benzylamino)-5-chloro-3H-[1,2,3]triazolo[4,5-d]pyrimidin-3-yl)-3,4-dihydroxytetrahydrofuran-2-yl)methoxy)(hydroxy)phosphoryl)methyl)phosphonic acid] | 100 to 1000
CN(c1nc(Cl)nc2c1cnn2[C@@H]1O[C@H](COP(=O)(O)CP(=O)(O)O)[C@@H](O)[C@H]1O)[C@@H]1CCc2ccccc21 [Example 50, (((((2R,3S,4R,5R)-5-(6-chloro-4-(((R)-2,3-dihydro-1H-inden-1-yl)(methyl)amino)-1H-pyrazolo[3,4-d]pyrimidin-1-yl)-3,4-dihydroxytetrahydrofuran-2-yl)methoxy)(hydroxy)phosphoryl)methyl) phosphonic acid] | < 100
CN(c1nc(Cl)nc2c1cnn2[C@@H]1O[C@H](COP(=O)(O)CP(=O)(O)O)[C@@H](O)[C@H]1O)[C@@H]1CCc2ccccc21 [Example 38, (((((2R,3S,4R,5R)-5-(6-chloro-4-(((R)-2,3-dihydro-1H-inden-1-yl)(methyl)amino)-1H-pyrazolo[3,4-d]pyrimidin-1-yl)-3,4-dihydroxytetrahydrofuran-2-yl)methoxy)(hydroxy)phosphoryl)methyl)phosphonic acid] | < 100
O=P(O)(O)CP(=O)(O)OC[C@H]1O[C@@H](n2nnc3c(N4CCCC[C@H]4c4ccccc4)nc(Cl)nc32)[C@H](O)[C@@H]1O [Example 16, (((((2R,3S,4R,5R)-5-(5-chloro-7-((S)-2-phenylpiperidin-1-yl)-3H-[1,2,3]triazolo[4,5-d]pyrimidin-3-yl)-3,4-dihydroxytetrahydrofuran-2-yl)methoxy)(hydroxy)phosphoryl)methyl) phosphonic acid] | < 100
C[C@@H](c1ccccc1)N(C)c1nc(Cl)nc2c1nnn2[C@@H]1O[C@H](COP(=O)(O)CP(=O)(O)O)[C@@H](O)[C@H]1O [Example 13, (((((2R,3S,4R,5R)-5-(5-chloro-7-(methyl((S)-1-phenylethyl)amino)-3H-[1,2,3]triazolo[4,5-d]pyrimidin-3-yl)-3,4-dihydroxytetrahydrofuran-2-yl)methoxy)(hydroxy)phosphoryl)methyl) phosphonic acid] | < 100
Cc1nn([C@@H]2O[C@H](COP(=O)(O)CP(=O)(O)O)[C@@H](O)[C@H]2O)c2nc(Cl)nc(N(C)Cc3ccccc3)c12 [Example 43, (((((2R,3S,4R,5R)-5-(4-(benzyl(methyl)amino)-6-chloro-3-methyl-1H-pyrazolo[3,4-d]pyrimidin-1-yl)-3,4-dihydroxytetrahydrofuran-2-yl)methoxy)(hydroxy)phosphoryl)methyl) phosphonic acid] | < 100
O=P(O)(O)CP(=O)(O)OC[C@H]1OC(n2nnc3c(NC4CCc5ccccc54)nc(Cl)nc32)[C@H](O)[C@@H]1O (stereo in doubt) [Example 31, (((((2R,3S,4R,5S)-5-(5-chloro-7-(((R)-2,3-dihydro-1H-inden-1-yl)amino)-3H-[1,2,3]triazolo[4,5-d]pyrimidin-3-yl)-3,4-dihydroxytetrahydrofuran-2-yl)methoxy)(hydroxy)phosphoryl)methyl) phosphonic acid] | < 100
CN(c1nc(Cl)nc2c1nnn2[C@@H]1O[C@H](COP(=O)(O)CP(=O)(O)O)[C@@H](O)[C@H]1O)[C@@H]1CCc2ccccc21 [Example 19, (((((2R,3S,4R,5R)-5-(5-chloro-7-(((R)-2,3-dihydro-1H-inden-1-yl)(methyl)amino)-3H-[1,2,3]triazolo[4,5-d]pyrimidin-3-yl)-3,4-dihydroxytetrahydrofuran-2-yl)methoxy)(hydroxy)phosphoryl)methyl) phosphonic acid] | < 100
C[C@@H](Nc1nc(Cl)nc2c1cnn2[C@@H]1O[C@H](COP(=O)(O)CP(=O)(O)O)[C@@H](O)[C@H]1O)c1ccccc1Cl [Example 45, (((((2R,3S,4R,5R)-5-(6-chloro-4-(((R)-1-(2-chlorophenyl)ethyl)amino)-1H-pyrazolo[3,4-d]pyrimidin-1-yl)-3,4-dihydroxytetrahydrofuran-2-yl)methoxy)(hydroxy)phosphoryl)methyl) phosphonic acid] | 100 to 1000
CN(c1nc(Cl)nc2c1nnn2[C@@H]1O[C@H](COP(=O)(O)CP(=O)(O)O)[C@@H](O)[C@H]1O)[C@H]1CCc2ccccc21 [Example 18, (((((2R,3S,4R,5R)-5-(5-chloro-7-(((S)-2,3-dihydro-1H-inden-1-yl)(methyl)amino)-3H-[1,2,3]triazolo[4,5-d]pyrimidin-3-yl)-3,4-dihydroxytetrahydrofuran-2-yl)methoxy)(hydroxy)phosphoryl)methyl) phosphonic acid] | < 100
CN(Cc1ccccc1)c1nc(Cl)nc2c1nnn2[C@@H]1O[C@H](COP(=O)(O)CP(=O)(O)O)C[C@H]1O [Example 22, (((((2S,4R,5R)-5-(7-(benzyl(methyl)amino)-5-chloro-3H-[1,2,3]triazolo[4,5-d]pyrimidin-3-yl)-4-hydroxytetrahydrofuran-2-yl)methoxy)(hydroxy)phosphoryl)methyl)phosphonic acid] | 100 to 1000
CCOP(=O)(CP(=O)(O)O)OC[C@H]1O[C@@H](n2nnc3c(NCc4ccccc4Cl)nc(Cl)nc32)[C@H](O)[C@@H]1O (stereo partly drawn) [Example 25, (((((2R,3S,4R,5R)-5-(5-chloro-7-((2-chlorobenzyl)amino)-3H-[1,2,3]triazolo[4,5-d]pyrimidin-3-yl)-3,4-dihydroxytetrahydrofuran-2-yl)methoxy)(ethoxy)phosphoryl)methyl) phosphonic acid] | 100 to 1000
